# Patent publication US20250195530A1, “POLQ INHIBITORS” (ASTRAZENECA AB, priority 2022, published 2025)
# Where two headings read alike, the source gives them in different places.
# Tests used:
# DLD-1 BRCA2−/− cells = assay: Homologous recombination synthetic lethal inhibition of proliferation, DLD-1 BRCA2-/- (Cell Titre Glo 3D); format: cell-based; conditions: Homo sapiens
# Procedure, shortened: (§1)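 Wild-type DLD-1 serves as the control for non-specific toxicity, and BRCA2-null DLD-1 as the homologous-recombination-deficient line. Both grew with compound from 10 μM down to 0.51 nM, re-dosed after 6 days. Luminescent ATP content (CellTiter-Glo 3D) was read after 7 or 12 days, respectively, to give IC50 values.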
# DLD-1 cells = assay: Inhibition of proliferation, DLD-1 BRCA2 wt control (Cell Titre Glo 3D); format: cell-based; conditions: Homo sapiens
# Procedure, shortened: as §1
# [1] = DLD-1, first proliferation column (c5), DLD-1 BRCA2-/-, read-out: POLQ PD Prolif Lumin (converted)
# [2] = DLD-1, second proliferation column (c6), DLD-1 BRCA2 wt control, read-out: POLQ PD Prolif Lumin (converted)
# [3] = DLD-1, DLD-1 BRCA2 −/− cells, mean, read-out: POLQ PD Prolif Lumin BRCA2 −/− mean pIC50 (converted)
# [4] = DLD-1, DLD1 BRCA2 wt cells, mean, read-out: POLQ PD Prolif Lumin DLD1 mean PIC50 (converted)
# [5] = DLD-1, DLD-1 BRCA2-/- proliferation, column head only partly shown, read-out: POLQ PD Prolif Lumin (converted)
# [6] = DLD-1, DLD-1 BRCA2 wt control proliferation, column head only partly shown, read-out: POLQ PD Prolif Lumin (converted)
# [7] = DLD-1, 288 h, DLD-1 BRCA2−/− cells, 12 days, read-out: POLQ PD Prolif Lumin BRCA2 −/− mean pIC50 (converted)
# [8] = DLD-1, 168 h, DLD-1 BRCA2 wt cells, 7 days, read-out: POLQ PD Prolif Lumin DLD1 mean pIC50 (converted)
smiles,measurement,setting,value
"CC(CCOc1ccc(-c2nc3c(OC4(C)CC4)ncnc3n2Cc2cc(C(F)(F)F)cc(C(F)(F)F)c2)c(Cl)c1)C(=O)O (racemic) [Example T533, 4-(4-(9-(3,5-bis(trifluoromethyl)benzyl)-6-(1-methylcyclopropoxy)-9H-purin-8-yl)-3-chlorophenoxy)-2-methylbutanoic acid]",IC50,DLD-1 BRCA2−/− cells; [1],398 nM
same,IC50,DLD-1 cells; [2],> 3160 nM
"CC1(Oc2ncnc3c2nc(-c2cccc(/C=C/C(=O)O)c2Cl)n3Cc2cccc(Cl)c2)CC1 [Example T80, (E)-3-(2-chloro-3-(9-(3-chlorobenzyl)-6-(1-methylcyclopropoxy)-9H-purin-8-yl)phenyl)acrylic acid]",IC50,DLD-1 BRCA2−/− cells; [3],100 nM
same,IC50,DLD-1 cells; [4],> 10000 nM
"Cc1cnc(Cn2c(-c3ccc(OC4CCCNCC4)cc3Cl)nc3c(OC4(C)CC4)ncnc32)s1 (single isomer, unassigned) [Example T242, 2-((8-(4-(azepan-4-yloxy)-2-chlorophenyl)-6-(1-methylcyclopropoxy)-9H-purin-9-yl)methyl)-5-methylthiazole]",IC50,DLD-1 BRCA2−/− cells; [5],794 nM
same,IC50,DLD-1 cells; [6],> 10000 nM
"Cc1ccnc(Cn2c(-c3ccc(CN4CC(O)C4)cc3Cl)nc3c(OC4(C)CC4)ncnc32)c1 [Example T209, 1-(3-chloro-4-(6-(1-methylcyclopropoxy)-9-((4-methylpyridin-2-yl)methyl)-9H-purin-8-yl)benzyl)azetidin-3-ol]",IC50,DLD-1 BRCA2−/− cells; [5],631 nM
same,IC50,DLD-1 cells; [6],> 10000 nM
"Cc1ccnc(Cn2c(-c3ccc(OCCN4CCNCC4)cc3Cl)nc3c(OC4(C)CC4)ncnc32)c1F [Example T504, 8-(2-chloro-4-(2-(piperazin-1-yl)ethoxy)phenyl)-9-((3-fluoro-4-methylpyridin-2-yl)methyl)-6-(1-methylcyclopropoxy)-9H-purine]",IC50,DLD-1 BRCA2−/− cells; [1],2000 nM
same,IC50,DLD-1 cells; [2],> 10000 nM
"Cc1ccnc(Cn2c(-c3ccc(C(=O)N4CCC4)cc3Cl)nc3c(OC4(C)CC4)ncnc32)c1 [Example T169, azetidin-1-yl(3-chloro-4-(6-(1-methylcyclopropoxy)-9-((4-methylpyridin-2-yl)methyl)-9H-purin-8-yl)phenyl)methanone]",IC50,DLD-1 BRCA2−/− cells; [1],631 nM
same,IC50,DLD-1 cells; [2],10000 nM
"Cc1ccnc(Cn2c(-c3ccc(OCCN)cc3Cl)nc3c(OC4(C)CC4)ncnc32)c1 [Example T69, 2-(3-chloro-4-(6-(1-methylcyclopropoxy)-9-((4-methylpyridin-2-yl)methyl)-9H-purin-8-yl)phenoxy)ethan-1-amine]",IC50,DLD-1 BRCA2−/− cells; [3],200 nM
same,IC50,DLD-1 cells; [4],> 10000 nM
"Cc1ccnc(Cn2c(-c3ccc(N4CCCC4=O)cc3Cl)nc3c(OC4(C)CC4)ncnc32)c1 [Example T171, 1-(3-chloro-4-(6-(1-methylcyclopropoxy)-9-((4-methylpyridin-2-yl)methyl)-9H-purin-8-yl)phenyl)pyrrolidin-2-one]",IC50,DLD-1 BRCA2−/− cells; [1],158 nM
same,IC50,DLD-1 cells; [2],> 10000 nM
"CN(C)C(=O)COc1ccc(-c2nc3c(OC4(C)CC4)ncnc3n2Cc2ccccc2)c(Cl)c1 [Example D20, 2-(4-(9-benzyl-6-(1-methylcyclopropoxy)-9H-purin-8-yl)-3-chlorophenoxy)-N,N-dimethylacetamide]",IC50,DLD-1 BRCA2−/− cells; [7],200 nM
same,IC50,DLD-1 cells; [8],> 10000 nM
"Cc1ccnc(Cn2c(-c3ccc(CC(=O)NC(C)C)cc3Cl)nc3c(OC4(C)CC4)ncnc32)c1 [Example T357, 2-(3-chloro-4-(6-(1-methylcyclopropoxy)-9-((4-methylpyridin-2-yl)methyl)-9H-purin-8-yl)phenyl)-N-isopropylacetamide]",IC50,"DLD-1 BRCA2−/− cells; DLD-1, first proliferation column (c5), taken as DLD-1 BRCA2-/-, read-out: POLQ PD Prolif Lumin (converted)",398 nM
same,IC50,"DLD-1 cells; DLD-1, second proliferation column (c6), taken as DLD-1 BRCA2 wt, read-out: POLQ PD Prolif Lumin (converted)",> 10000 nM
"Cc1ccnc(Cn2c(-c3ccc(C(=O)N4CC5(CCN5)C4)cc3Cl)nc3c(OC4(C)CC4)ncnc32)c1 [Example T429, (3-chloro-4-(6-(1-methylcyclopropoxy)-9-((4-methylpyridin-2-yl)methyl)-9H-purin-8-yl)phenyl)(1,6-diazaspiro[3.3]heptan-6-yl)methanone]",IC50,"DLD-1 BRCA2−/− cells; DLD-1, proliferation, luminescence, taken as DLD-1 BRCA2-/-, read-out: POLQ PD Prolif Lumin (converted)",1260 nM
same,IC50,"DLD-1 cells; DLD-1, proliferation, luminescence, second Prolif column (c6), taken as DLD-1 BRCA2 wt control, read-out: POLQ PD Prolif Lumin (converted)",> 10000 nM
"COc1ncccc1-c1nc2c(OC3(C)CC3)ncnc2n1Cc1ccccc1 [Example N9, 9-benzyl-8-(2-methoxypyridin-3-yl)-6-(1-methylcyclopropoxy)-9H-purine]",IC50,DLD-1 BRCA2−/− cells; [7],1260 nM
same,IC50,DLD-1 cells; [8],> 10000 nM
